This passage reports Kd results from PubChem BioAssay AID1549 (Sanford-Burnham Center for Chemical Genomics, 2009).

Calls of active or inactive are those of the source. The rule behind the calls is not given here.

For orientation: Kd means the concentration at which binding is half-saturated.

The assay has as its target Influenza A virus M2 proton channel (A/TW/4845/1999 H1N1). Put plainly: NMR binding screen, influenza A virus M2 proton channel, Kd (AID 1549). The settings on record: M2 protein.
With `O=C(NC1=NCCS1)c1ccc(Cl)s1`, the Kd was > 4 mM (inactive).

Take `CC(=O)OC1CCC2(C)C(=CC=C3C2CCC2(C)C3CCC2C(C)/C=C/C(C)C(C)C)C1(C)C` (stereo unspecified): the Kd is > 4 mM (inactive). For the compound `COc1cc(/C=C2/NC(=S)NC2=O)cc(Cl)c1O`, the Kd was > 4 mM (inactive). Regarding `CC(=O)Oc1c(C)cc(O)c2ccccc12`, the Kd is > 4 mM (inactive). In the case of `COC(=O)/C(=C1\OC(=O)C(c2ccccc2)C1=O)c1ccccc1` (stereo unspecified), the Kd is > 4 mM (inactive). `CSc1ccc(C2NC(=O)CCC2[N+](=O)[O-])cc1` (stereo unspecified): the Kd was > 4 mM (inactive).

For the compound `Cc1cccc(CSc2nncc(=O)[nH]2)c1`, the Kd is > 4 mM (inactive).

Take `COc1ccc2c(c1)OC1(O)COc3cc(OC)c(OC)cc3C1=C2` (stereo unspecified): the Kd was > 4 mM (inactive). Take `Nc1ccc(Cl)nn1`: the Kd was > 4 mM (inactive). With `Cc1cccc(N2C(=O)CC(=O)NC2=O)c1` the figure was > 4 mM (inactive); with `C[C@@H]1O[C@@H](O[C@H]2CC[C@]3(C=O)C4CC[C@]5(C)[C@@H](C6=CC(=O)OC6)CC[C@]5(O)C4CC[C@]3(O)C2)[C@H](O)[C@H](O)[C@H]1O` (stereo partly specified), > 4 mM (inactive); with `O=C(O)C(O)C(O)C(O)C(O)C(=O)O` (stereo unspecified), > 4 mM (inactive). In the case of `COC(=O)c1cncn1C` it was > 4 mM (inactive). Consider `Cc1nnsc1C(=O)N(C)c1ccccc1`, for which the Kd was > 4 mM (inactive). As for `C=C(C)[C@H]1COc2cc3oc(=O)ccc3cc2O1`, the Kd is > 4 mM (inactive). For the compound `O=c1[nH]cc(NCc2ccco2)c(=O)[nH]1`, the Kd is > 4 mM (inactive). As for `c1ccc(C2NCCc3[nH]cnc32)cc1` (stereo unspecified), the Kd was > 4 mM (inactive). In the case of `CC1(C(=O)O)CC2C=CC1C2` (stereo unspecified) it was > 4 mM (inactive); in that of `Cc1nnc(SCC(=O)Nc2ccccc2)[nH]c1=O`, > 4 mM (inactive); in that of `CC(=O)Oc1c(-c2ccccc2)oc2c(CC=C(C)C)c3c(c(OC(C)=O)c2c1=O)C=CC(C)(C)O3`, > 4 mM (inactive). In the case of `Cc1ccc(N2CCN(C(=O)c3ccccc3)CC2)c(C)c1` it was > 4 mM (inactive); in that of `CC(C)C(C)/C=C/C(C)C1CCC2C3=CC=C4CC(O)CCC4(C)C3CCC21C` (stereo unspecified), > 4 mM (inactive); in that of `O=C(O)CC12CC3CC(CC(O)(C3)C1)C2`, > 4 mM (inactive). With `COc1cnn(Cc2ccccc2)c(=O)c1Cl` the figure was > 4 mM (inactive); with `O=Cc1c(N2CCOCC2)nc2ccccn2c1=O`, > 4 mM (inactive); with `CS(=O)(=O)Nc1cc2c3c(c1)CCN3C(=O)CC2`, > 4 mM (inactive). As for `O=C(O)c1ccc(-c2cccs2)s1`, the Kd is > 4 mM (inactive).

For `COc1ccc(C2NC(C(=O)O)CS2)cc1` (stereo unspecified), the Kd is > 4 mM (inactive). In the case of `COC(=O)[C@]1(C)CC[C@]2(C)CC[C@]3(C)C4=CCc5c(cc(O)c(O)c5C)[C@]4(C)CC[C@@]3(C)C2C1` (stereo partly specified) it was > 4 mM (inactive); in that of `Cc1noc(C)c1C(=O)N1CCc2ccccc21`, > 4 mM (inactive); in that of `O=c1/c(=C\c2cccnc2)sc2nc3ccccc3n12`, > 4 mM (inactive). In the case of `C(=N\n1cnnc1)/c1cccs1` it was > 4 mM (inactive). With `CC(O)c1nc2ccccc2[nH]1` (stereo unspecified) the figure was > 4 mM (inactive); with `Nc1ncnc(Cl)c1[N+](=O)[O-]`, > 4 mM (inactive); with `O=C(O)c1csc(-c2ccccc2)n1`, > 4 mM (inactive).

For `C/C(N)=C/C(=O)N1CCCCC1`, the Kd is > 4 mM (inactive). Turning to `Cc1cc(C)n2nc(-c3cccnc3)nc2n1`, the Kd is > 4 mM (inactive). In the case of `Nc1ccc(CCC(=O)O)cc1` it was > 4 mM (inactive); in that of `Nc1cccc2cccnc12`, > 4 mM (inactive). With `CNCc1ccccc1` the figure was > 4 mM (inactive); with `NC(=O)c1ccccc1N1CCCCC1`, > 4 mM (inactive).
